pIC50: −log10 of the molar value. The source made the active and inactive calls.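 How the source made its calls: active means IC50 below 10 µM against protein phosphatase 1 in the dose response test; inactive means IC50 of 10 µM or more.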
target: Serine/threonine-protein phosphatase PP1-alpha catalytic subunit (Homo sapiens) (UniProt P62136); test: dose-dependent PP1alpha phosphatase inhibition – biochemical, fluorescence, OMFP substrate, set 4, dose response (AID 652216); conditions: purified PP1alpha, OMFP dephosphorylation fluorescence
Sequence (P62136 whole entry, looked up): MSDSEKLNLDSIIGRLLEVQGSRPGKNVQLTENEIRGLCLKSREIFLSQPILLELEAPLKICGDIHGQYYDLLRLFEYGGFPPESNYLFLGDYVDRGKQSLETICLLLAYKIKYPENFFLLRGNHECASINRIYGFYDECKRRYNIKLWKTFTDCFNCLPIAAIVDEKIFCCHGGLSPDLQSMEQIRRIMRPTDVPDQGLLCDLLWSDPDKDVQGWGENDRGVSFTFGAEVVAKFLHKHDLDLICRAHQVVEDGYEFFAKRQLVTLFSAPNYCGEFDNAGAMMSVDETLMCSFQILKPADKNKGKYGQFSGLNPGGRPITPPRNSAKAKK

| Compound | IC50 | pIC50 |
| --- | --- | --- |
| CN1CCN(C(c2cccc(F)n2)c2ccc3cccnc3c2O)CC1 (centres undefined) | inactive | – |
| CN1CCN([C@@H](c2ccc(C(F)(F)F)cn2)c2ccc3cccnc3c2O)CC1 | – | 5.08 |
| CN1CCN(C(c2ccc(C(F)(F)F)cn2)c2ccc3cccnc3c2O)CC1 (centres undefined) | – | 5.35 |
| CN1CCN([C@H](c2ccc(C(F)(F)F)cn2)c2ccc3cccnc3c2O)CC1 | – | 5.05 |

From PubChem BioAssay AID652216 (The Scripps Research Institute Molecular Screening Center, 2013)
